Results published in publication PMC11274801, “A Novel PDE10A Inhibitor for Tourette Syndrome and Other Movement Disorders” (Cells, 2024).

Assays:
acute schizophrenia = conditions: press release ref 44; cited from earlier work
striatal cAMP and cGMP = assay: cAMP and cGMP levels in the striatum; format: in vivo, rat; conditions: maximal dose 30 mg/kg
Method: The striatum was dissected, weighed, and then frozen in liquid nitrogen. For cyclic nucleotide measurements, frozen striatal tissue was homogenized in 5% trichloroacetic acid and centrifuged and the supernatant was collected. Supernatants were ether-washed and then the cAMP and cGMP levels in the aqueous phase were determined by enzyme immunoassay using kits from Cayman Chemical Co. (Ann Arbor, MI, USA)

[1] = tested on: patients with stage I–II HD; parameters: method as in earlier work; conditions: cited from earlier work
primates = tested on: primates; parameters: method as in PMID 24490227; conditions: cited from earlier work
D2 receptor = conditions: 2–5 mg daily ref 54; cited from earlier work

Cc1ncc(C)n2nc(-c3ccn4cc(-c5ccccc5)nc4n3)nc12 [CPL500-036]
efficacy in acute schizophrenia (acute schizophrenia): positive efficacy vs. placebo

Cn1cc(-c2ccncc2)c(-c2ccc(OCc3ccc4ccccc4n3)cc2)n1 [MP-10]
effect on striatal cAMP and cGMP levels (striatal cAMP and cGMP): increases | primary outcome (UHDRS-TMS) and clinical global impression of improvement ([1]; 26-week phase 2, 272 patients ref 45): no improvement in the primary outcome measure | quantitative motor assessment (Q-motor) ([1]; 26-week phase 2 ref 45): dose-dependent improvement | effect on motivational aspects of behavior (primates): dampen motivational aspects of behavior to a greater extent than a D2 antagonist

O=C(CCCN1CCC(O)(c2ccc(Cl)cc2)CC1)c1ccc(F)cc1 [haloperidol]
D2 occupancy (D2 receptor): 60–80%
